For experiment [1], the target named is T1, récepteur chimère Gal-PPARγ (LBD) (Homo sapiens, UniProt P37231).
T1 construct: le récepteur chimère Gal-PPARγ (LBD); Gal (fusion partner); expressed in transfected cells; host or cells: HeLa cells, stably transfected
T1 sequence (P37231 238-503 limits assumed): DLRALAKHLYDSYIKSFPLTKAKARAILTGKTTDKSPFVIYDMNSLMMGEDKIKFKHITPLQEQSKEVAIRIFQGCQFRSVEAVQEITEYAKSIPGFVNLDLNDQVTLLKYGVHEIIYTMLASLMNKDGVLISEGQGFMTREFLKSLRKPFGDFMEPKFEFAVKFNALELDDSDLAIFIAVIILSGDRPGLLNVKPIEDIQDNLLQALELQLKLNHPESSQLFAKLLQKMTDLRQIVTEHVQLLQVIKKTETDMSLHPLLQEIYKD
As to the kind of experiment: Transactivation test, Hela cells stably transfected with chimeric receptor Gal-PPARγ (LBD), luciferase readout. The experiment is classed as cell-based. The following applies: M-HeLa, 24 h, compound at 1 microM, percent of activation relative to reference agonist at 1 µM, read-out: % d'activation (à 1 microM) PPARγ. As for the experimental part: L'activité agoniste vis à vis des récepteurs PPARγ des composés selon l'invention peut être évaluée par des tests de transactivation.
(§1) La capacité des molécules à activer et/ou inhiber les récepteurs PPARγ est évaluée à partir de cellules Hela transfectées de manière stable avec le récepteur chimère Gal-PPARγ (LBD).
(§2) Des plaques 96 puits sont ensemencées à raison de 10 000 cellules /100 µl / puit dans du milieu DMEM 10% SDL puis placées 24 heures à 37°C, 7% CO2.
(§3) Pour déterminer l'activité agoniste PPARγ, les cellules sont ensuite traitées par ajout de 5 µl puit des molécules à tester à la concentration finale de 1 µM. Des cellules sont également traitées en parallèle avec un agoniste de référence, l'acide (-)-3-{4-[2-(Benzooxazol-2-yl-methyl-amino)-ethoxy]-phenyl}-2-ethoxy-propionique, 1 µM.
(§4) Après une nouvelle incubation de 24 heures à 37°C, 7% CO2, un dosage de la luciférase est effectué à l'aide du kit « Steady-Glo Luciferase Assay System » de Promega. Le comptage de la luminescence se fait sur un lecteur de microplaque Microbéta Trilux (Wallac).
(§5) L'activité agoniste du produit testé sera exprimée en pourcentage d'activation par rapport au témoin agoniste l'agoniste de référence à 1 µM.
(§6) L'AC50, exprimée en nM, est déterminée comme la concentration permettant d'obtenir 50% d'activation du signal basal par rapport à l'agoniste de référence.

For experiment [2], the target named is T2, récepteur chimère Gal-PPARα (Homo sapiens, UniProt Q07869).
T2 sequence (Q07869 167-468): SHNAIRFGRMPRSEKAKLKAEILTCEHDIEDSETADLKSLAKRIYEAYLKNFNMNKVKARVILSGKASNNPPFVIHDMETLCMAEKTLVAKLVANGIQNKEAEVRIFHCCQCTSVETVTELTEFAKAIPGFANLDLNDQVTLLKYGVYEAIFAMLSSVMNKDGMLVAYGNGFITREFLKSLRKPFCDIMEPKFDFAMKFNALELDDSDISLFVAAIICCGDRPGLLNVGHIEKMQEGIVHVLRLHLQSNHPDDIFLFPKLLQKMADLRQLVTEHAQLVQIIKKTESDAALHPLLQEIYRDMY
As to the kind of experiment: Transactivation test, same protocol with chimeric receptor Gal-PPARα. Conditions: 24 h; compound at 1 microM; percent of activation relative to reference agonist (Wy 14643 = 100%); Hela cells; read-out: % d'activation (à 1 microM) PPARα. The experiment is classed as cell-based.
Text: De préférence, l'activateur des récepteurs de type PPARγ est spécifique, c'est à dire qu'il présente un rapport du pourcentage d'activation des récepteurs PPARγ, au pourcentage d'activation des récepteurs PPARα (calculé par rapport à un composé de référence, le Wy 14643, activant les PPARα de 100%) supérieur ou égal à 3. De préférence, ce rapport est supérieur ou égal à 5 et plus avantageusement supérieur ou égal à 10.
as §1, §2, §3, §4, §5
En appliquant ce même protocole avec le récepteur chimère Gal-PPARα, on peut mesurer l'activité agoniste des composés vis à vis des récepteurs PPAR alpha et ainsi la comparer avec celui du récepteur PPARγ.
as §6

As to `CCO[C@@H](Cc1ccc(-c2cccc(CN(C)C(=O)c3ccc4cc(OCOCCOC)ccc4c3)c2)cc1)C(=O)O` [Composé de l'exemple 23, Acide (S)-2-Ethoxy-3-{3'-[({1-[6-(2-methoxy-ethoxymethoxy)-naphthalen-2-yl]-methanoyl}-methyl-amino)-methyl]-biphenyl-4-yl}-propionique], the activation at 1 µM was 90% in experiment [1] and 11.9% in experiment [2].
For `CN(Cc1cccc(-c2ccc(CC3SC(=O)NC3=O)cc2)c1)C(=O)c1cccn1C` (stereo not drawn) [Composé de l'exemple 8, N-[4'-(2,4-dioxo-thiazolidin-5-ylmethyl)-biphenyl-3-ylmethyl]-N-methyl-1-Methyl-1H-pyrrole-2-carboxamide], the activation at 1 µM in experiment [1] is 97.2%; in experiment [2] it was 33.6%.
For `CN(Cc1cccc(-c2ccc(CC3SC(=O)NC3=O)cc2)c1)C(=O)c1ccc(S(C)(=O)=O)cc1` (stereo not drawn) [Composé de l'exemple 14, N-[4'-(2,4-Dioxo-thiazolidin-5-ylmethyl)-biphenyl-3-ylmethyl]-4-methanesulfonyl-N-methyl-benzamide] the same measures were 76.7% and 19%.

The values above are taken from EP1458697B1, “BIPHENYLMETHYL-THIAZOLIDINEDIONES AND ANALOGUES AND THEIR USE AS PPAR-GAMMA ACTIVATORS” (Galderma Research & Development, S.N.C., priority 2001, dated 2003).
